Measured values as given in patent EP4467141A1, “PYRAZOLO-QUINOLINES AS SELECTIVE INHIBITORS OF GENOTOXIC STRESS-INDUCED IKK/NF- KB PATHWAYS FOR CANCER THERAPY” (Max-Delbrück-Centrum für Molekulare Medizin in der …, priority 2023, dated 2024).
Like-named read-outs stand apart in the source and are kept apart here.

How the values were obtained:
Experiment in all cases: Kinase panel study
Format in all cases: biochemical
[1] = molecular target: T1, PIK3C2G (PI3K-C2 gamma) (Homo sapiens, UniProt O75747); settings: for inhibition at 1 µM: 1000nM; for IC50: in vitro kinase panel, criterion of at most 2000 nM
T1 construct: purchased Thermo Fisher Scientific
T1 sequence (O75747 1-1486): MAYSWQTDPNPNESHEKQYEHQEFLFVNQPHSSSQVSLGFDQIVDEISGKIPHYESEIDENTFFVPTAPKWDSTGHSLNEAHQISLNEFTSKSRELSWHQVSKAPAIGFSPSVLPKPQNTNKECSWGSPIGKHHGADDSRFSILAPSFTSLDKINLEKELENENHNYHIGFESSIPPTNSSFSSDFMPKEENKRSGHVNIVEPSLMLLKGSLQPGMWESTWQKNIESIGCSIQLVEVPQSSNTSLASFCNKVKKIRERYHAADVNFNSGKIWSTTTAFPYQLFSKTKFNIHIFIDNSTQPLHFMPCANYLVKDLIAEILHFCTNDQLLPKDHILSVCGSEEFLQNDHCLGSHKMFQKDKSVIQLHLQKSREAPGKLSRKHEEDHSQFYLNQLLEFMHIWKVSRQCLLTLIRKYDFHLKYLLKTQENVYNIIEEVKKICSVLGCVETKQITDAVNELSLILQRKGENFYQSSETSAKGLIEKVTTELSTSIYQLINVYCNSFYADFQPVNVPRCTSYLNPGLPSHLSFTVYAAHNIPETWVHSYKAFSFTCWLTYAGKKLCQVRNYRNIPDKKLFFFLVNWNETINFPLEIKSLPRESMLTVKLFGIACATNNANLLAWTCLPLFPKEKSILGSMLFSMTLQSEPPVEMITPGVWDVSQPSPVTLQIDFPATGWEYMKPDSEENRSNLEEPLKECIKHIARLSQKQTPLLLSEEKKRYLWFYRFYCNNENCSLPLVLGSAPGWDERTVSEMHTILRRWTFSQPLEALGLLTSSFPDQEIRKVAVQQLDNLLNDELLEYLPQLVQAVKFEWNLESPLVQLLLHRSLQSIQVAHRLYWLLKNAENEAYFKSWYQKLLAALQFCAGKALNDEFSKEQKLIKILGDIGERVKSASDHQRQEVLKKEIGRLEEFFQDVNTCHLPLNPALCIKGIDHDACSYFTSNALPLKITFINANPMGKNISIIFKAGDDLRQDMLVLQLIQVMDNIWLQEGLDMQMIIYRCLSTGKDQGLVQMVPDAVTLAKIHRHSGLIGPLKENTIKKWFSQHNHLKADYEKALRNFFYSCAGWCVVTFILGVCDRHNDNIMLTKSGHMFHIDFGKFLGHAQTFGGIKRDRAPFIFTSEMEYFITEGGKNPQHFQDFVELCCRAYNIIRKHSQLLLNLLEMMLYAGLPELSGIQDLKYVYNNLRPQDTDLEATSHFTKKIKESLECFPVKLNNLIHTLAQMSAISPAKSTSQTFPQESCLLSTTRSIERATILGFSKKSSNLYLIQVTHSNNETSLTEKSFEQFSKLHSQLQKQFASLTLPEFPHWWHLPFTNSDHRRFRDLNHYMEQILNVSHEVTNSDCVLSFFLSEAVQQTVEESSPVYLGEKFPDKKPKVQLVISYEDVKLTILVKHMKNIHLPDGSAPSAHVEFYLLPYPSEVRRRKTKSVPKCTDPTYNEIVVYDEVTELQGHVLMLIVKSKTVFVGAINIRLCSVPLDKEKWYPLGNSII
Procedure: (§1) The Kinase panel study was entirely provided by Thermo Fisher Scientific using the two lead compounds MW01 and MW05 as well as their derivatives (MW01-E06, MW01-E10, MW01-E14, MW01-E18, MW05-E2, MW05-E3, MW05-E9 and MW05-E10. The experiment was performed using the ZLyte or Adapta protocol according to manufacturer standard operating procedures.
(§2) Based on their similar effects in our screen and molecular analysis, MW01 and MW05 were used in comparative target deconvolution studies seeking common targets despite their distinct structures. To eliminate previously identified kinases regulating NF-κB activity, such as IKK, as possible targets of MW01 and MW05, an in vitro kinase inhibition assay was performed. […] We next investigated if any of the shared kinase targets of MW01 and MW05 play a role in genotoxic stress-induced NF-κB activity and established several criteria to narrow down pathway-relevant targets. Considering the similar NF-κB inhibition phenotypes of both compounds, we hypothesized first that the target should be shared by both lead compounds. Second, based on the CaCo2 recovery values and experimental treatment concentration of 10 µM), the putative target kinase should have a low IC50 of, at most, 2000 nM for both lead compounds in the in vitro kinase panel (Fig. 2A). Based on these criteria alone, we arrived at a relatively short list of potential targets for further analysis, leaving only PIK3CG, PIK3C2G, and CLK2 (Fig. 2B). IC50 values for PIK3C2G by both lead compounds agreed best with these criteria, but RNA expression analysis indicates high tissue specificity as well as lack of expression of this kinase in our U2-OS model cell line, which we then eliminated from further analysis (Uhlén et al., 2015). […] Table 6: Percentage of inhibition of the indicated kinases by MW01 or MW05 at either 10 µM or 1 µM. n.d. = not determined.

[2] = molecular target: T2, PIP5K1C (Homo sapiens, UniProt O60331); settings: for inhibition at 1 µM: 1000nM
T2 construct: purchased Thermo Fisher Scientific
Procedure: as §1, §2

[3] = molecular target: T3, PI4KB (PI4K beta) (Homo sapiens, UniProt Q9UBF8); settings: for inhibition at 1 µM: 1000nM
T3 construct: purchased Thermo Fisher Scientific
Procedure: as §1, §2

[4] = molecular target: T4, EGFR (ErbB1) (Homo sapiens, UniProt P00533); settings: for inhibition at 1 µM: 1000nM
T4 construct: purchased Thermo Fisher Scientific
Procedure: as §1, §2

[5] = read-out: Percentage of inhibition
[6] = 10000nM, read-out: Percentage of inhibition
[7] = PIK3C2G (PI3K-C2 gamma), compound at 10µM, read-out: % of Inhibition
[8] = PIP5K1C, compound at 10µM, read-out: % of Inhibition
[9] = PI4KB (PI4K beta), compound at 10µM, read-out: % of Inhibition
[10] = EGFR (ErbB1), compound at 10µM, read-out: % of Inhibition

T2 sequence (O60331 whole entry): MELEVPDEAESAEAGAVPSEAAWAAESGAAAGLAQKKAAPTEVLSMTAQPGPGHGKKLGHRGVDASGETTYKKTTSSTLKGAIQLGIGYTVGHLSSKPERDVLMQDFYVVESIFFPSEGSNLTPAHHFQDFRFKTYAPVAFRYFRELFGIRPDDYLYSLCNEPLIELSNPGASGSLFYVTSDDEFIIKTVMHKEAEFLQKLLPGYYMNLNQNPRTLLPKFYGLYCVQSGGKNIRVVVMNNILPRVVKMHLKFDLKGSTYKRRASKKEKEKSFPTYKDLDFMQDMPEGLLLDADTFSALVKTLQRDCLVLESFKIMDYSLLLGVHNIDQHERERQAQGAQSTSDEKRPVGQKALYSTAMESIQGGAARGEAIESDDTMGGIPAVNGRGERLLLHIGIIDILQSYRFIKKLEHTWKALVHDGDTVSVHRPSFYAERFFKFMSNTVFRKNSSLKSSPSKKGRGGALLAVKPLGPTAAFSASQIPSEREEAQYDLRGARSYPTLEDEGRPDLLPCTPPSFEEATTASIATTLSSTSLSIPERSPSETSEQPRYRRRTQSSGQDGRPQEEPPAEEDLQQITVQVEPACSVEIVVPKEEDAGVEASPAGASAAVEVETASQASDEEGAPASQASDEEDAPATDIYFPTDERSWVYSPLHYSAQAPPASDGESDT
T3 sequence (Q9UBF8 whole entry): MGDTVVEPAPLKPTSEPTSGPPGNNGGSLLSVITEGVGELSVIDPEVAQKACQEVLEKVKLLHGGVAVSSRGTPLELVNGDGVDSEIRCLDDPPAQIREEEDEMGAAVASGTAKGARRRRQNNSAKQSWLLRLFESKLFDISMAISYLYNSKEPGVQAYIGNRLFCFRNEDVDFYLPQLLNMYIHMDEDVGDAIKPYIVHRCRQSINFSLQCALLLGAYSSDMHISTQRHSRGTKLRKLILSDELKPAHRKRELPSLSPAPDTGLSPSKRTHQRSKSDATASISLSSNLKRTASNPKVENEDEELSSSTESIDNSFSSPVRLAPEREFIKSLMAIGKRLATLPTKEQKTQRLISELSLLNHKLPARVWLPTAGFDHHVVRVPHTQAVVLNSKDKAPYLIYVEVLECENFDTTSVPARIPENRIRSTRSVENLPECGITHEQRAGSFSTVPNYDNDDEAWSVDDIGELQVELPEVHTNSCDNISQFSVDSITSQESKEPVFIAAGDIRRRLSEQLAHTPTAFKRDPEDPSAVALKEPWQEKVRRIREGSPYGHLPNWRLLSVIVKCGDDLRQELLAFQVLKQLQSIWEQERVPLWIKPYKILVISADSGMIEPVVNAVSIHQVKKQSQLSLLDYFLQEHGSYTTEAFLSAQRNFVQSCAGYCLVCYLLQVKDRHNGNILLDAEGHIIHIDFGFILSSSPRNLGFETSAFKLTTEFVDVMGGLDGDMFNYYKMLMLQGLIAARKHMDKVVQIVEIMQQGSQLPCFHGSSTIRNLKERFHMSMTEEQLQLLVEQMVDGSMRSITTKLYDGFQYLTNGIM
T4 sequence (P00533 25-1210): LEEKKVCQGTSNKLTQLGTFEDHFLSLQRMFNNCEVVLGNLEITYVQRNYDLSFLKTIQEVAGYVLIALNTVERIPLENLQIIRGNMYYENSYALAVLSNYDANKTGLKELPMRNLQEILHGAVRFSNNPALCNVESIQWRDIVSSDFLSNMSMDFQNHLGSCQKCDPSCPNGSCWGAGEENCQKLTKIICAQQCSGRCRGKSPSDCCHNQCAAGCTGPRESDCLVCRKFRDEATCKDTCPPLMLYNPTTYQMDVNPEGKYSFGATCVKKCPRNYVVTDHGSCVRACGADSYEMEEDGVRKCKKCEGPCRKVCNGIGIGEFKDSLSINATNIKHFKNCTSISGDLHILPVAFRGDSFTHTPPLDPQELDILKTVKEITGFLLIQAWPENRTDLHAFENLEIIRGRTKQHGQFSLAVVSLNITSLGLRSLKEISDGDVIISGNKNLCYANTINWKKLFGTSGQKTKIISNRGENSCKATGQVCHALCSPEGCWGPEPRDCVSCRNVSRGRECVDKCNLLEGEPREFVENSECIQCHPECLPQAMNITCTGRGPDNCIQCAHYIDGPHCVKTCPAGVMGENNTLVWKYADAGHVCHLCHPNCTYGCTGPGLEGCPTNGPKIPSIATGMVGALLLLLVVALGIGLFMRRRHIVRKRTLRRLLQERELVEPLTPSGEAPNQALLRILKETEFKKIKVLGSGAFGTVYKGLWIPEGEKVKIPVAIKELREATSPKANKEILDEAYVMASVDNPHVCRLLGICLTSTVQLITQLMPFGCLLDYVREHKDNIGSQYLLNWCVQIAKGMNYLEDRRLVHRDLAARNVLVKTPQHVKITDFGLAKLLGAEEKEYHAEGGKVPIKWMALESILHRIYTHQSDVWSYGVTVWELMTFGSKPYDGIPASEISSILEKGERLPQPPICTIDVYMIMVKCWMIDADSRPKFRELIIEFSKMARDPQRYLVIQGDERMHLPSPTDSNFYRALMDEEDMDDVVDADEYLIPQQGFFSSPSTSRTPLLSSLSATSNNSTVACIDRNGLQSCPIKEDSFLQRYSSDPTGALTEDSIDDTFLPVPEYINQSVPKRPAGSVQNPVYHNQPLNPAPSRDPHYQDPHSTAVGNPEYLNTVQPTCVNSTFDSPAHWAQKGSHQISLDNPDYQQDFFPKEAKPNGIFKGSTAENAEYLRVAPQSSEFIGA

| Compound | inhibition at 1 µM [1, 5] | inhibition at 10 µM [1, 6] | IC50 [1] | inhibition at 1 µM [2, 5] | inhibition at 10 µM [2, 6] | inhibition at 1 µM [3, 5] | inhibition at 10 µM [3, 6] | inhibition at 1 µM [4, 5] | inhibition at 10 µM [4, 6] | inhibition at 10 µM [1, 7] | inhibition at 10 µM [2, 8] | inhibition at 10 µM [3, 9] | inhibition at 10 µM [4, 10] |
| --- | --- | --- | --- | --- | --- | --- | --- | --- | --- | --- | --- | --- | --- |
| COc1ccc2c(c1OC)c(=O)n1c3ccc(O)cc3c3ccnc2c31 [MW01, 5-Hydroxy-10,11-dimethoxy-9H-benzo[c]indolo[3,2,1-ij][1,5]naphthyridin-9-one] | 92% | 94% | ≤ 2000 nM | 54% | 69% | 94% | 100% | 17% | 0% | – | – | – | – |
| COc1ccc2c(c1)c1ccnc3c4nc(OC)ccc4c(=O)n2c13 [MW01-E6, 5,15-dimethoxy-1,11,14-triazapentacyclo[10.7.1,0^2,7.0^8,^20.0^13,^18]icosa-2(7),3,5,8(20),9,11,13(18),14,16-nonaen-19-one] | – | – | – | – | – | – | – | – | – | 35% | 14% | 12% | 11% |
| O=c1c2cc(O)ccc2c2nccc3c4cc(O)ccc4n1c32 [MW01-E10, 5,16-dihydroxy-1,11-diazapentacyclo[10.7.1.0^2,^7.0^8,^20.0^13,^18]icosa-2(7),3,5,8(20),9,11,13(18),14,16-nonaen-19-one] | – | – | – | – | – | – | – | – | – | 81% | 33% | 90% | 15% |
| COc1ccc2c(c1)c1ccnc3c4ccnc(OC)c4c(=O)n2c13 [MW01-E14, 5,17-dimethoxy-1,11,16-triazapentacyclo[10.7.1.0^2,^7.0^8,^20.0^13,^18]icosa-2(7),3,5,8(20),9,11,13(18),14,16-nonaen-19-one] | – | – | – | – | – | – | – | – | – | 50% | 8% | 36% | 9% |
| O=c1c2cnccc2c2nccc3c4cc(O)ccc4n1c32 [MW01-E18, 5-hydroxy-1,11,16-triazapentacyclo[10.7.1.0^2,^7.0^8,^20.0^13,^18]icosa-2(7),3,5,8(20),9,11,13(18),14,16-nonaen-19-one] | – | – | – | – | – | – | – | – | – | 81% | 27% | 81% | 14% |
| COc1ccc2cc3c(N)nn(C(=O)c4cccc(N(C)C)c4)c3nc2c1 [MW05, (3-Amino-7-methoxypyrazolo[3,4-b]quinolin-1-yl)-[3-(dimethylamino)phenyl]methanone] | 56% | 87% | ≤ 2000 nM | -1% | 26% | -2% | 43% | 13% | 5% | – | – | – | – |
| COc1ccc2nc3c(cc2c1)c(N)nn3C(=O)c1cccc(N(C)C)c1 [MW05-E2, 1-[3-(dimethylamino)benzoyl]-6-methoxy-1H-pyrazolo[3,4-b]quinolin-3-amine] | – | – | – | – | – | – | – | – | – | 27% | -2% | 9% | 33% |
